According to patent US8461181B2, “Fused heterocyclic compound and use thereof” (Sumitomo Chemical Company, Ltd., priority 2009, dated 2013):

What was measured:
Type in all cases: in vivo
Aphis gossypii [1] = experiment: Test Example 2: foot drench of cucumber seedling on urethane mat, Aphis gossypii; conditions: soil, 168 h, 5 ml drench at foot of cucumber seedling on urethane mat, inoculated one day after treatment, checked seven days after
Experimental: The formulations of the present active compounds (4), (5), (8), (9), (11), (12), (14), (15), (17), (20), (35) to (45), (48) to (51), (54) to (56), (206), (209) and (211) to (213) obtained by Formulation Example 5 were diluted with water so that the active ingredient concentration was 500 ppm, to prepare diluted solutions for test. Separately, a cucumber seedling (second true leaf spreading stage) planted on a urethane mat was drenched at its foot with each 5 ml of the diluted solutions, and one day after treatment, the cucumber leaf surface was inoculated with 30 Aphis gossypii (whole stage). Further seven days after, the number of insect of living Aphis gossypii […] on the leaves of this cucumber was checked, and the control value was calculated according to the following formula. Control value (%)={1-(Cb×Tai)/(Cai×Tb)}×100 Letters in the formula represent the following meanings. Cb: the number of insect before treatment on non-treated district Cai: the number of insect in observation on non-treated district Tb: the number of insect before treatment on treated district Tai: the number of insect in observation on treated district

Nilaparvata lugens [2] = experiment: Test Example 8: spray on rice seedling, 20 first instar larvae of Nilaparvata lugens; conditions: 144 h, 10 ml sprayed on rice seedling, 20 first instar larvae released, 6 days at 25° C.
Experimental: The formulations of the present active compounds (6), (7), (18), (21), (24), (25), (28) to (30), (32), (46), (52), (101) to (103), (105) to (107), (111), (112), (115), (119) to (124), (126) to (130), (133) to (135), (139), (142), (144) to (146), (149) to (151), (153), (154), (216) and (217) obtained by Formulation Example 5 were diluted with water so that the active ingredient concentration was 500 ppm, to prepare spray solutions for test. Separately, on a rice seedling (2 weeks after sowing, second leaf spreading stage) planted on a plastic cup, the drug solutions for test prepared as described above were sprayed each in an amount of 10 ml. After drying of the drug solution sprayed on rice, 20 first instar larvae of Nilaparvata lugens were released, and kept in a greenhouse of 25° C. for 6 days. Thereafter, the number of Nilaparvata lugens […] on rice was checked, and the control value was calculated according to the following formula. Control value (%)={1-(Cb×Tai)/(Cai×Tb)}×100 Letters in the formula represent the following meanings. Cb: the number of insect before treatment on non-treated district Cai: the number of insect in observation on non-treated district Tb: the number of insect before treatment on treated district Tai: the number of insect in observation on treated district

Nilaparvata lugens [3] = experiment: Test Example 9: foot drench of rice seedling, twenty first instar larvae of Nilaparvata lugens; conditions: soil, 144 h, 5 ml drench at foot of rice seedling, kept 7 days, twenty first instar larvae released, further 6 days
Experimental: The formulations of the present active compounds (6), (7), (18), (22), (25), (30), (33), (46), (47), (53), (101) to (103), (106), (121) to (124), (126) to (128), (135), (139), (216) and (217) obtained by Formulation Example 5 were diluted with water so that the active ingredient concentration was 500 ppm, to prepare diluted solutions for test. Separately, a rice seedling (2 weeks after sowing, second leaf spreading stage) planted on a plastic cup was drenched at its foot with each 5 ml of the diluted solutions, and kept in a greenhouse of 25° C. for 7 days. Twenty first instar larvae of Nilaparvata lugens were released, and further kept in the greenhouse for 6 days, then, the number of insect of living Nilaparvata lugens […] on rice was checked, and the control value was calculated according to the following formula. Control value (%)={1-(Cb×Tai)/(Cai×Tb)}×100 Letters in the formula represent the following meanings. Cb: the number of insect before treatment on non-treated district Cai: the number of insect in observation on non-treated district Tb: the number of insect before treatment on treated district Tai: the number of insect in observation on treated district

Aphis gossypii [4] = experiment: Test Example 3: root immersion of cucumber seedling, Aphis gossypii; conditions: 168 h, cucumber root part immersed in 5 ml, inoculated one day after treatment, checked seven days after
Experimental: The formulations of the present active compounds (18), (19), (21), (22), (24), (25), (28), (31) to (34), (46), (47), (52), (53), (101) to (104), (106) to (108), (112) to (114), (117), (118), (122), (123), (126), (128), (129), (133), (134), (138), (144), (153) to (155) and (157) obtained by Formulation Example 5 were diluted with water so that the active ingredient concentration was 500 ppm, to prepare diluted solutions for test. A root part of a cucumber seedling (first true leaf spreading stage) from which soil had been washed off was immersed in 5 ml of this diluted solution, and one day after treatment, the cucumber leaf surface was inoculated with 30 Aphis gossypii (whole stage). Further seven days after, the number of insect of living Aphis gossypii […] on the leaves of this cucumber was checked, and the control value was calculated according to the following formula. Control value (%)={1-(Cb×Tai)/(Cai×Tb)}×100 Letters in the formula represent the following meanings. Cb: the number of insect before treatment on non-treated district Cai: the number of insect in observation on non-treated district Tb: the number of insect before treatment on treated district Tai: the number of insect in observation on treated district

Aphis gossypii [5] = experiment: Test Example 4: foot drench of cucumber seedling in plastic cup, inoculation after 7 days, Aphis gossypii; conditions: soil, 144 h, 5 ml drench at foot of cucumber seedling in plastic cup, kept 7 days at 25° C., inoculated, further 6 days
Experimental: The formulations of the present active compounds (3) to (7), (17), (19), (20), (22), (29) to (31), (35) to (37), (39), (41) to (45), (47) to (56), (101), (106), (121) to (123), (128), (131), (137), (139), (143), (145), (147), (211) to (213), (216) and (217) obtained by Formulation Example 5 were diluted with water so that the active ingredient concentration was 500 ppm, to prepare diluted solutions for test. Separately, a cucumber seedling (second true leaf spreading stage) planted on a plastic cup was drenched at its foot with each 5 ml of the diluted solutions, and kept in a greenhouse of 25° C. for 7 days. The cucumber leaf surface was inoculated with 30 Aphis gossypii (whole stage), and further kept in the greenhouse for 6 days, then, the number of insect of living Aphis gossypii […] on the leaves of this cucumber was checked, and the control value was calculated according to the following formula. Control value (%)={1-(Cb×Tai)/(Cai×Tb)}×100 Letters in the formula represent the following meanings. Cb: the number of insect before treatment on non-treated district Cai: the number of insect in observation on non-treated district Tb: the number of insect before treatment on treated district Tai: the number of insect in observation on treated district

SMILES: Cn1c(-c2ccncc2F)nc2cc(C(F)(F)F)ccc21 [present active compound 4, 2-(3-fluoropyridin-4-yl)-1-methyl-5-trifluoromethyl-1H-benzimidazole]
- pest or weed control at 500 ppm (Aphis gossypii [1]): ≥ 90%

SMILES: Cn1c(-c2ccncc2Cl)nc2cc(C(F)(F)F)ccc21 [present active compound 5, 2-(3-chloropyridin-4-yl)-1-methyl-5-trifluoromethyl-1H-benzimidazole]
- pest or weed control at 500 ppm (Aphis gossypii [1]): ≥ 90%

SMILES: Cc1cnccc1-c1nc2cc(C(F)(F)F)ccc2n1C [present active compound 6, 1-methyl-2-(3-methylpyridin-4-yl)-5-trifluoromethyl-1H-benzimidazole]
- pest or weed control at 500 ppm (Nilaparvata lugens [2]): ≥ 90%
- pest or weed control at 500 ppm (Nilaparvata lugens [3]): ≥ 90%

SMILES: CCc1cnccc1-c1nc2cc(C(F)(F)F)ccc2n1C [present active compound 7, 2-(3-ethylpyridin-4-yl)-1-methyl-5-trifluoromethyl-1H-benzimidazole]
- pest or weed control at 500 ppm (Nilaparvata lugens [2]): ≥ 90%
- pest or weed control at 500 ppm (Nilaparvata lugens [3]): ≥ 90%

SMILES: COc1cnccc1-c1nc2cc(C(F)(F)F)ccc2n1C [present active compound 8, 2-(3-methoxypyridin-4-yl)-1-methyl-5-trifluoromethyl-1H-benzimidazole]
- pest or weed control at 500 ppm (Aphis gossypii [1]): ≥ 90%

SMILES: CCOc1cnccc1-c1nc2cc(C(F)(F)F)ccc2n1C [present active compound 9, 2-(3-ethoxypyridin-4-yl)-1-methyl-5-trifluoromethyl-1H-benzimidazole]
- pest or weed control at 500 ppm (Aphis gossypii [1]): ≥ 90%

SMILES: Cn1c(-c2ccncc2OC(C)(C)C)nc2cc(C(F)(F)F)ccc21 [present active compound 12, 2-(3-tert-butoxypyridin-4-yl)-1-methyl-5-trifluoromethyl-1H-benzimidazole]
- pest or weed control at 500 ppm (Aphis gossypii [1]): ≥ 90%

SMILES: Cn1c(-c2ccncc2OCC(F)F)nc2cc(C(F)(F)F)ccc21 [present active compound 14, 2-[3-(2,2-difluoroethoxy)-pyridin-4-yl]-1-methyl-5-trifluoromethyl-1H-benzimidazole]
- pest or weed control at 500 ppm (Aphis gossypii [1]): ≥ 90%

SMILES: Cn1c(-c2ccncc2OCCF)nc2cc(C(F)(F)F)ccc21 [present active compound 15, 2-[3-(2-fluoroethoxy)-pyridin-4-yl]-1-methyl-5-trifluoromethyl-1H-benzimidazole]
- pest or weed control at 500 ppm (Aphis gossypii [1]): ≥ 90%

SMILES: Cn1c(-c2ccncc2[S+](C)[O-])nc2cc(C(F)(F)F)ccc21 (stereo not drawn) [present active compound 18, 2-(3-methanesulfinylpyridin-4-yl)-1-methyl-5-trifluoromethyl-1H-benzimidazole]
- pest or weed control at 500 ppm (Aphis gossypii [4]): ≥ 90%
- pest or weed control at 500 ppm (Nilaparvata lugens [2]): ≥ 90%
- pest or weed control at 500 ppm (Nilaparvata lugens [3]): ≥ 90%

SMILES: CCSc1cnccc1-c1nc2cc(C(F)(F)F)ccc2n1C [present active compound 20, 2-(3-ethylthiopyridin-4-yl)-1-methyl-5-trifluoromethyl-1H-benzimidazole]
- pest or weed control at 500 ppm (Aphis gossypii [1]): ≥ 90%
- pest or weed control at 500 ppm (Aphis gossypii [5]): ≥ 90%

SMILES: CCS(=O)(=O)c1cnccc1-c1nc2cc(C(F)(F)F)ccc2n1C [present active compound 22, 2-(3-ethanesulfonylpyridin-4-yl)-1-methyl-5-trifluoromethyl-1H-benzimidazole]
- pest or weed control at 500 ppm (Aphis gossypii [4]): ≥ 90%
- pest or weed control at 500 ppm (Aphis gossypii [5]): ≥ 90%
- pest or weed control at 500 ppm (Nilaparvata lugens [3]): ≥ 90%

SMILES: COCCOc1cnccc1-c1nc2cc(C(F)(F)F)cnc2n1C [present active compound 46, 2-[3-(2-methoxyethoxy)-pyridin-4-yl]-3-methyl-6-trifluoromethyl-3H-imidazo[4,5-b]pyridine]
- pest or weed control at 500 ppm (Aphis gossypii [4]): ≥ 90%
- pest or weed control at 500 ppm (Nilaparvata lugens [2]): ≥ 90%
- pest or weed control at 500 ppm (Nilaparvata lugens [3]): ≥ 90%

SMILES: CCS(=O)(=O)c1cnccc1-c1nc2cc(C(F)(F)F)cnc2n1C [present active compound 53, 2-(3-ethanesulfonylpyridin-4-yl)-3-methyl-6-trifluoromethyl-3H-imidazo[4,5-b]pyridine]
- pest or weed control at 500 ppm (Aphis gossypii [4]): ≥ 90%
- pest or weed control at 500 ppm (Nilaparvata lugens [3]): ≥ 90%

SMILES: CN(C)C(=O)c1cnccc1-c1nc2cc(C(F)(F)F)cnc2n1C [present active compound 139]
- pest or weed control at 500 ppm (Aphis gossypii [5]): ≥ 90%
- pest or weed control at 500 ppm (Nilaparvata lugens [2]): ≥ 90%
- pest or weed control at 500 ppm (Nilaparvata lugens [3]): ≥ 90%

SMILES: Cc1cnccc1-c1nc2cc(C(F)(F)F)cnc2n1C [present active compound 216, 3-methyl-2-(3-methylpyridin-4-yl-)-6-trifluoromethyl-3H-imidazo[4,5-b]pyridine]
- pest or weed control at 500 ppm (Aphis gossypii [5]): ≥ 90%
- pest or weed control at 500 ppm (Nilaparvata lugens [2]): ≥ 90%
- pest or weed control at 500 ppm (Nilaparvata lugens [3]): ≥ 90%

SMILES: CCc1cnccc1-c1nc2cc(C(F)(F)F)cnc2n1C [present active compound 217, 2-(3-ethylpyridin-4-yl-)-3-methyl-6-trifluoromethyl-3H-imidazo[4,5-b]pyridine]
- pest or weed control at 500 ppm (Aphis gossypii [5]): ≥ 90%
- pest or weed control at 500 ppm (Nilaparvata lugens [2]): ≥ 90%
- pest or weed control at 500 ppm (Nilaparvata lugens [3]): ≥ 90%
